In patent US20230141034A1, “ADAMANTANE-1-CARBONYL THIOUREA, AS P2X RECEPTOR ANTAGONIST” (COMSATS UNIVERSITY ISLAMABAD, priority 2021, published 2023):
Like-named read-outs stand apart in the source and are kept apart here.

Assays:
[1] = target: T1, h-P2X7 (Homo sapiens, UniProt Q99572); assay: Ca2+ flux assay h-P2X7; details: for inhibition at 50 µM: read-out: h-P2X7 % Inhibition
T1 sequence (Q99572 1-595): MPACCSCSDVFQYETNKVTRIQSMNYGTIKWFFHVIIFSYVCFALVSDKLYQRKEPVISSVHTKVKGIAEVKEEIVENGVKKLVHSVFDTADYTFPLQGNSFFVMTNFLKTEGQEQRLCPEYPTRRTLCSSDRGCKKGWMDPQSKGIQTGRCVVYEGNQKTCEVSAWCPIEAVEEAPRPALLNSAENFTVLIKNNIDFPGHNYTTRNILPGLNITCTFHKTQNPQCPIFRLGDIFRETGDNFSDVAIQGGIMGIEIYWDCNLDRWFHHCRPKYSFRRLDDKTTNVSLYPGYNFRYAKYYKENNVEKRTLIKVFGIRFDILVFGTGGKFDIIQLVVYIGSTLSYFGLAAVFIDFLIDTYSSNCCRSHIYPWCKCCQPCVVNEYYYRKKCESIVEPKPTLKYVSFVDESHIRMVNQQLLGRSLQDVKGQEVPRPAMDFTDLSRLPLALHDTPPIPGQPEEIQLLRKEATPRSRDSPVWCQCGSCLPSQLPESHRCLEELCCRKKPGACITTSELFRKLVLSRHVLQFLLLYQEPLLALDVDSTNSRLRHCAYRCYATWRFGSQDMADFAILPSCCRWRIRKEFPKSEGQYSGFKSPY
Method: (§4) Compounds were initially analyzed at a final concentration of about 50 μM and percentage of inhibition was calculated.
(§5) Calcium Mobilization Assay to Measure P2X Receptors Response Cell Culture: P2X receptors functions can be analyzed from ATP-induced increase in cytosolic Ca^2+ concentration. Two Ca^2+ chelating dyes, Fura-2 AM and Fluo-4 AM can be used to determine the intracellular Ca^2+ concentration through a fluorescent imaging micro-titer plate reader (BMG Labtech: FLUOstar Galaxy®). Non-transfected human 1321N1 astrocytoma cells, as well as P2X receptors transfected human 1321N1 astrocytoma cells will be cultured in T-75 cm^2 cell culture flask having appropriate cell culture growth media; Dulbecco's Modified Eagle's medium (DMEM) supplemented with 10% fetal bovine serum (FBS), 75 μg/mL of Hygromycin B or human P2X receptors transfected cell lines and 1% pen-strep (antibiotics). Cells will be incubated at 37° C. in 5% CO2 incubator until 80 to 90% cell confluency will be achieved. Cells will be maintained in an exponential growth phase throughout the experiment and closely monitored for contamination.
Measurement of Ca^2+ Flux
(§6) When 1321N1 cells will reach 80 to 90% of confluency, cells will be harvested from T-75 cm^2 flask by trypsinization. After washing the cells with phosphate buffer saline (PBS), cells will be seeded at a density of 20,000 cells/well in black, clear bottom, poly-D-lysine coated 96 well plate. After 16 to 24 h, cell culture media will be removed and add Hank's balanced salt solution (HBSS) containing 3 μM Ca^2+ chelating dyes Fura-2 AM or Fluo-4 AM. After 1 h of incubation at 23° C., the loading dye solution will be removed, and added seven to eight dilutions of test compounds in triplicate format. ATP (at a concentration value of EC80) or buffer will be added and measured the excitation and emission at 340/520 nm and 380/520 nm through FLUOStar Galaxy®. Assay volume for the experiment will be 200 μL. IC50 and EC50 values will be calculated by PRISM 5.0 (GrapgPad, San Diego, Calif., USA) through non-linear regression analysis.

[2] = target: T2, h-P2X4 (Homo sapiens, UniProt Q99571); assay: Ca2+ flux assay h-P2X4; details: for inhibition at 50 µM: read-out: h-P2X4 % Inhibition
T2 sequence (Q99571 1-388): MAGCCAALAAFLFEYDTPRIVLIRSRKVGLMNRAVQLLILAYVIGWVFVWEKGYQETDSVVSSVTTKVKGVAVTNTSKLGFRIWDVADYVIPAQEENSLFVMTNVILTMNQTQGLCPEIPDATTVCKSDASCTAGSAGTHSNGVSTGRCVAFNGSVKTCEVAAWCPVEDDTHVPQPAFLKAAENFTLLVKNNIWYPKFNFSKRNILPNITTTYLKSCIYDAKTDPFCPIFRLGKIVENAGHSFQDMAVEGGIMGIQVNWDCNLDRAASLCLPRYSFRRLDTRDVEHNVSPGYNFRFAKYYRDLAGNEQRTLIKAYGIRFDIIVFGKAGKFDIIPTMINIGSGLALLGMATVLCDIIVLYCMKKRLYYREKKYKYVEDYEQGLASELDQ
Method: as §4, §5
Measurement of Ca^2+ Flux
as §6

[3] = MTT cytotoxicity assay, human 1321N1 astrocytoma cell line; assay type: cell-based; details: human, 1321N1 astrocytoma cells, final concentration of 50 μM
Method: (§1) Cellular safety profiling of adamantane thioureas were done through MTT assay. All compounds were analyzed for toxicity at final concentration of 50 μM. […] Toxicity was determined against two cancer cell lines including human 1321N1 Astrocytoma cell line, HeLa cell line and a normal HEK-293 cell line.
(§2) c. Cell Viability Assay (MTT Assay)
(§3) After 24 h of incubation at 37° C. in CO2 incubator, culture media will be replaced with serum-free media along with test compounds and re-incubate. After 24 h, media will be removed and add 100 μL of MTT reagent (0.5-5 mg/mL) and will be incubated for a further 4 h, at 37° C. Absorbance will be measured at 570 and 630 nm to calculate cell viability.

[4] = target: h-P2X5 (Homo sapiens, UniProt Q93086); assay: Ca2+ flux assay h-P2X5; details: for inhibition at 50 µM: read-out: h-P2X5 % Inhibition
Sequence of h-P2X5 (Q93086 whole entry): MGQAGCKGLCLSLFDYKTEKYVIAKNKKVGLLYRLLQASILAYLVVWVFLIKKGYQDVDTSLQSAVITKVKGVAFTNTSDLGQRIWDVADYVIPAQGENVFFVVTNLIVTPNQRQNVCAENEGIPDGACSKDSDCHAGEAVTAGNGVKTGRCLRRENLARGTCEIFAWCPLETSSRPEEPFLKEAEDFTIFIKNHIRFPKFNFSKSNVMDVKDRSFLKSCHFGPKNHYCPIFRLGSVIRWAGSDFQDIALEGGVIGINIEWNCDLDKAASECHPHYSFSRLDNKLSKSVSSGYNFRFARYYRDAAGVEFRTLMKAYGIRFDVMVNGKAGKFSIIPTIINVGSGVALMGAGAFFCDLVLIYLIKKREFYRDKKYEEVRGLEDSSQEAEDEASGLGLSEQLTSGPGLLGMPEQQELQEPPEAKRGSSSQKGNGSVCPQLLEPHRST
Method: as §4, §5
Measurement of Ca^2+ Flux
as §6

[5] = MTT cytotoxicity assay, HeLa cell line; assay type: cell-based; details: human, HeLa cells, final concentration of 50 μM
Method: as §1, §2, §3

[6] = target: T3, h-P2X2 (Homo sapiens, UniProt Q9UBL9); assay: Ca2+ flux assay h-P2X2; details: for IC50: read-out: h-P2X2 IC50 ± SEM, Ca2+ flux, n = 3; for inhibition at 50 µM: read-out: h-P2X2 % Inhibition
T3 sequence (Q9UBL9 1-471): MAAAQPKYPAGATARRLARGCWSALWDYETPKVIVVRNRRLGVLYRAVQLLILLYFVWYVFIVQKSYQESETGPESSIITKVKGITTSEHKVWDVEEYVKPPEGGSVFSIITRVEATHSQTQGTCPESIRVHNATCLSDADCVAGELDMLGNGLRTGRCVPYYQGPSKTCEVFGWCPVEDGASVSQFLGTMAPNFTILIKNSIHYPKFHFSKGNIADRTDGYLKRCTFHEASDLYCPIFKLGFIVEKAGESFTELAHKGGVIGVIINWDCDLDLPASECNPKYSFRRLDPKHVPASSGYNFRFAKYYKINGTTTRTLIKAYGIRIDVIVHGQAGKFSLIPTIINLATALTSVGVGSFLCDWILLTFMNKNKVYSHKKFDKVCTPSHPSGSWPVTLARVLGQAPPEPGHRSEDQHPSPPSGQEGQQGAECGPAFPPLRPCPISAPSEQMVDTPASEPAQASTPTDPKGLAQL
Method: as §4, §5
Measurement of Ca^2+ Flux
as §6

[7] = MTT cytotoxicity assay, HEK-293 cell line; assay type: cell-based; details: human, HEK-293 cells, final concentration of 50 μM
Method: as §1, §2, §3

[8] = read-out: h-P2X7 IC50 ± SEM, Ca2+ flux, n = 3
[9] = read-out: h-P2X4 IC50 ± SEM, Ca2+ flux, n = 3

Compound: COc1ccc(NC(=S)NC(=O)C23CC4CC(CC(C4)C2)C3)cc1 [Ij, N-((4-methoxyphenyl)carbamothioyl)adamantane-1-carboxamide]
- inhibition at 50 µM [1]: 29.4%
- inhibition at 50 µM [2]: 44.9%
- cytotoxicity at 24 h, 50 µM [3]: 4.56%
- inhibition at 50 µM [4]: 44.5%
- cytotoxicity at 24 h, 50 µM [5]: 8.01%
- IC50 [6]: 5.24 ± 0.32 µM
- cytotoxicity at 24 h, 50 µM [7]: 10.6%

Compound: O=C(NC(=S)Nc1ccc(Br)cc1)C12CC3CC(CC(C3)C1)C2 [Il, N-((4-bromophenyl)carbamothioyl)adamantane-1-carboxamide]
- IC50 [1, 8]: 8.8 ± 1.12 µM
- inhibition at 50 µM [2]: 46.8%
- cytotoxicity at 24 h, 50 µM [3]: 15.4%
- inhibition at 50 µM [4]: 47.7%
- cytotoxicity at 24 h, 50 µM [5]: 7.19%
- inhibition at 50 µM [6]: 36%
- cytotoxicity at 24 h, 50 µM [7]: 18.7%

Compound: O=C(NC(=S)Nc1ccc(O)cc1)C12CC3CC(CC(C3)C1)C2 [Ic, N-((4-hydroxyphenyl)carbamothioyl)adamantane-1-carboxamide]
- IC50 [1, 8]: 1.4 ± 0.18 µM
- inhibition at 50 µM [2]: 32.4%
- cytotoxicity at 24 h, 50 µM [3]: 19%
- inhibition at 50 µM [4]: 33.2%
- cytotoxicity at 24 h, 50 µM [5]: 8.66%
- inhibition at 50 µM [6]: 37.9%
- cytotoxicity at 24 h, 50 µM [7]: 3.02%

Compound: COc1ccc(NC(=S)NC(=O)C23CC4CC(CC(C4)C2)C3)cc1OC [Ik, N-((3,4-dimethoxyphenyl)carbamothioyl)adamantane-1-carboxamide]
- IC50 [1, 8]: 4.9 ± 1.04 µM
- IC50 [2, 9]: 3.46 ± 0.4 µM
- cytotoxicity at 24 h, 50 µM [3]: 19.4%
- IC50 [4]: 1.48 ± 0.23 µM
- cytotoxicity at 24 h, 50 µM [5]: 14.3%
- IC50 [6]: 0.732 ± 0.01 µM
- cytotoxicity at 24 h, 50 µM [7]: 7.2%

Compound: O=C(NC(=S)Nc1cccc(O)c1)C12CC3CC(CC(C3)C1)C2 [Ib, N-((3-hydroxyphenyl)carbamothioyl)adamantane-1-carboxamide]
- inhibition at 50 µM [1]: 19.1%
- inhibition at 50 µM [2]: 36.7%
- cytotoxicity at 24 h, 50 µM [3]: 5.67%
- inhibition at 50 µM [4]: 43.6%
- cytotoxicity at 24 h, 50 µM [5]: 11%
- inhibition at 50 µM [6]: 32.6%
- cytotoxicity at 24 h, 50 µM [7]: 6.95%

Compound: Cc1ccc(C(=O)Nc2ccc(S(=O)(=O)O)c3cc(S(=O)(=O)O)cc(S(=O)(=O)O)c23)cc1NC(=O)c1cccc(NC(=O)Nc2cccc(C(=O)Nc3cc(C(=O)Nc4ccc(S(=O)(=O)O)c5cc(S(=O)(=O)O)cc(S(=O)(=O)O)c45)ccc3C)c2)c1 [Suramin, reference compound]
- IC50 [2, 9]: 5.64 ± 0.04 µM
- cytotoxicity at 24 h, 50 µM [3]: 18.6%
- IC50 ([4]; read-out: h-P2X5 IC50 ± SEM, Ca2+ flux, n = 3): 16.1 ± 0.5 µM
- cytotoxicity at 24 h, 50 µM [5]: 21.7%
- IC50 [6]: 13.45 ± 0.11 µM
- cytotoxicity at 24 h, 50 µM [7]: 48%

Compound: NS(=O)(=O)c1cccc(NC(=S)NC(=O)C23CC4CC(CC(C4)C2)C3)c1 [Ig, N-((3-sulfamoylphenyl)carbamothioyl)adamantane-1-carboxamide]
- IC50 [1]: 0.829 ± 0.12 µM
- IC50 [2]: 4.19 ± 0.23 µM
- cytotoxicity at 24 h, 50 µM [3]: 12.9%
- inhibition at 50 µM [4]: 42.5%
- cytotoxicity at 24 h, 50 µM [5]: 12.5%
- inhibition at 50 µM [6]: 18.1%
- cytotoxicity at 24 h, 50 µM [7]: 3.77%

Compound: COc1cccc(NC(=S)NC(=O)C23CC4CC(CC(C4)C2)C3)c1 [Ii, N-((3-methoxyphenyl)carbamothioyl)adamantane-1-carboxamide]
- inhibition at 50 µM [1]: 15.1%
- inhibition at 50 µM [2]: 38%
- cytotoxicity at 24 h, 50 µM [3]: 6.53%
- inhibition at 50 µM [4]: 44%
- cytotoxicity at 24 h, 50 µM [5]: 18.1%
- IC50 [6]: 2.31 ± 0.31 µM
- cytotoxicity at 24 h, 50 µM [7]: 20.7%

Compound: O=C(NC(=S)Nc1cc(Br)c(O)c(C(F)(F)F)c1)C12CC3CC(CC(C3)C1)C2 [Ie, N-((3-bromo-4-hydroxy-5-(trifluoromethyl)phenyl)carbamothioyl)adamantane-1-carboxamide]
- IC50 [1]: 4.02 ± 0.64 µM
- IC50 [2]: 4.53 ± 0.39 µM
- cytotoxicity at 24 h, 50 µM [3]: 5.37%
- inhibition at 50 µM [4]: 20.4%
- cytotoxicity at 24 h, 50 µM [5]: 11.9%
- inhibition at 50 µM [6]: 30.5%
- cytotoxicity at 24 h, 50 µM [7]: 6.85%

Compound: O=C(NC(=S)Nc1cc(Cl)c(O)c(Cl)c1)C12CC3CC(CC(C3)C1)C2 [Id, N-((3,5-dichloro-4-hydroxyphenyl)carbamothioyl)adamantane-1-carboxamide]
- IC50 [2, 9]: 1.28 ± 0.11 µM
- cytotoxicity at 24 h, 50 µM [3]: 6.18%
- IC50 [4]: 3.4 ± 0.4 µM
- cytotoxicity at 24 h, 50 µM [5]: 5.4%
- IC50 [6]: 1.06 ± 0.05 µM
- cytotoxicity at 24 h, 50 µM [7]: 1.06%

Compound: O=C(NC(=S)Nc1cc([N+](=O)[O-])ccc1Cl)C12CC3CC(CC(C3)C1)C2 [Ih, N-((2-chloro-5-nitrophenyl)carbamothioyl)adamantane-1-carboxamide]
- IC50 [1, 8]: 2.53 ± 0.72 µM
- IC50 [2, 9]: 1.29 ± 0.09 µM
- cytotoxicity at 24 h, 50 µM [3]: 20.5%
- inhibition at 50 µM [4]: 32.1%
- cytotoxicity at 24 h, 50 µM [5]: 8.66%
- IC50 [6]: 4.58 ± 0.21 µM
- cytotoxicity at 24 h, 50 µM [7]: 24.6%

Compound: Cc1cc(Br)ccc1NC(=S)NC(=O)C12CC3CC(CC(C3)C1)C2 [In, N-((4-bromo-2-methylphenyl)carbamothioyl)adamantane-1-carboxamide]
- inhibition at 50 µM [1]: 18.8%
- inhibition at 50 µM [2]: 34.9%
- cytotoxicity at 24 h, 50 µM [3]: 14.3%
- inhibition at 50 µM [4]: 27.1%
- cytotoxicity at 24 h, 50 µM [5]: 4.1%
- inhibition at 50 µM [6]: 22.7%
- cytotoxicity at 24 h, 50 µM [7]: 14%

Compound: O=C(NC(=S)Nc1ccccc1O)C12CC3CC(CC(C3)C1)C2 [Ia, N-((2-hydroxyphenyl)carbamothioyl)adamantane-1-carboxamide]
- IC50 [1, 8]: 1.47 ± 0.09 µM
- IC50 [2, 9]: 1.08 ± 0.02 µM
- cytotoxicity at 24 h, 50 µM [3]: 10.3%
- inhibition at 50 µM [4]: 40.6%
- cytotoxicity at 24 h, 50 µM [5]: 13.1%
- inhibition at 50 µM [6]: 32.6%
- cytotoxicity at 24 h, 50 µM [7]: 26.6%

Compound: O=C(NC(=S)Nc1cc(Br)ccc1Br)C12CC3CC(CC(C3)C1)C2 [Iq, N-((2,5-dibromophenyl)carbamothioyl)adamantane-1-carboxamide]
- inhibition at 50 µM [1]: 11.2%
- IC50 [2]: 5.73 ± 0.42 µM
- cytotoxicity at 24 h, 50 µM [3]: 21.2%
- inhibition at 50 µM [4]: 16.2%
- cytotoxicity at 24 h, 50 µM [5]: 20.7%
- inhibition at 50 µM [6]: 41.1%
- cytotoxicity at 24 h, 50 µM [7]: 14.8%

Compound: CN(C)CCCNC(=S)NC(=O)C12CC3CC(CC(C3)C1)C2 [Ir, N-((3-(dimethylamino)propyl)carbamothioyl)adamantane-1-carboxamide]
- inhibition at 50 µM [1]: 5.01%
- inhibition at 50 µM [2]: 0%
- cytotoxicity at 24 h, 50 µM [3]: 10.1%
- inhibition at 50 µM [4]: 11.2%
- cytotoxicity at 24 h, 50 µM [5]: 8.14%
- inhibition at 50 µM [6]: 2.15%
- cytotoxicity at 24 h, 50 µM [7]: 5.16%

Compound: Cc1ccc(NC(=S)NC(=O)C23CC4CC(CC(C4)C2)C3)c(Br)c1 [Im, N-((2-bromo-4-methylphenyl)carbamothioyl)adamantane-1-carboxamide]
- IC50 [1, 8]: 3.71 ± 0.78 µM
- IC50 [2, 9]: 1.56 ± 0.21 µM
- cytotoxicity at 24 h, 50 µM [3]: 7.29%
- IC50 [4]: 6.04 ± 1.2 µM
- cytotoxicity at 24 h, 50 µM [5]: 15.4%
- IC50 [6]: 4.85 ± 0.32 µM
- cytotoxicity at 24 h, 50 µM [7]: 18.9%
